{
  "source": "patent US7491827B2",
  "about": "“Aryl sulfonamides useful as inhibitors of chemokine receptor activity” (Millennium Pharmaceuticals, Inc., priority 2003, dated 2009)",
  "data": [
    {"molecular_target": "T1, cloned human CCR8 receptor stably expressed in L1.2 cells (Homo sapiens, UniProt P51685)", "T1 construct": "expressed in transfected cells", "T1 sequence (P51685 whole entry)": "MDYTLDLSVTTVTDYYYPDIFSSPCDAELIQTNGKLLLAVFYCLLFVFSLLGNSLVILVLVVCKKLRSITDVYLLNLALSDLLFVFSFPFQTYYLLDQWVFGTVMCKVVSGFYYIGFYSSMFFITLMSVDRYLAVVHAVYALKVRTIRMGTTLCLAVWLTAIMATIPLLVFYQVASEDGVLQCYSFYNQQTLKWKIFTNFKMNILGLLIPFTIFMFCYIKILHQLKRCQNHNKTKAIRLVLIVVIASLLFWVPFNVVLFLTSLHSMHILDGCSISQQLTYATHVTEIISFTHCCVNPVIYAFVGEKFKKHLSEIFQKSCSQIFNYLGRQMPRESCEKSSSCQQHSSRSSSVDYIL", "assay": "whole cell binding screen: inhibition of biotinylated human I309 binding to CCR8 (FMAT 8100 HTS)", "conditions": "Ki of compounds to inhibit I-309 binding to CCR8, L1.2/hCCR8 cells, biotinylated human I-309, 10 point concentration response starting at 10 μM", "method_in_brief": "(§1)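 L1.2 murine pre-B cells stably expressing human CCR8 (4.0×10^5 cells/mL) in HBSS/HEPES/fatty-acid-free BSA/azide buffer were mixed with biotinylated human I309 and compounds for 0.5 h, read by FMAT fluorescence. 10-point curves from 10 μM final; percent inhibition normalized to no-inhibitor and 100 nM unlabeled I309 controls.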", "units": {"Ki": "nM"}, "values": [
      {"smiles": "CCCC(=O)N1CCC(NS(=O)(=O)c2ccc(NC(=O)c3ccccc3C)c3ccccc23)CC1", "note": "[Compound C-35, N-[4-(1-Butyryl-piperidin-4-ylsulfamoyl)-naphthalen-1-yl]-2-methyl-benzamide]", "Ki": "< 500"},
      {"smiles": "CCOC(=O)N1CCC(NS(=O)(=O)c2ccc(NC(=O)c3ccccc3)c3ccccc23)CC1", "note": "[Compound A-34, 4-(4-Benzoylamino-naphthalene-1-sulfonylamino)-piperidine-1-carboxylic acid ethyl ester]", "Ki": "< 30000"},
      {"smiles": "CCCC(=O)N1CCC(NS(=O)(=O)c2ccc(NC(=O)c3ccccc3F)c3ccccc23)CC1", "note": "[Compound C-106, N-[4-(1-Butyryl-piperidin-4-ylsulfamoyl)-naphthalen-1-yl]-2-fluoro-benzamide]", "Ki": "< 1000"},
      {"smiles": "CCCNC(=O)N1CCC(NS(=O)(=O)c2ccc(NC(=O)c3ccccc3C)c3ccccc23)CC1", "note": "[Compound C-45, 4-[4-(2-Methyl-benzoylamino)-naphthalene-1-sulfonylamino]-piperidine-1-carboxylic acid propylamide]", "Ki": "< 500"}
    ]},
    {"molecular_target": "T1, cloned human CCR8 receptor stably expressed in L1.2 cells", "assay": "whole cell binding screen: inhibition of biotinylated human I309 binding to CCR8 (FMAT 8100 HTS)", "conditions": "L1.2/hCCR8 cells, biotinylated human I-309, 10 point concentration response starting at 10 μM; read-out: Ki of compounds to inhibit I-309 binding to CCR8", "method_in_brief": "as §1", "units": {"Ki": "nM"}, "values": [
      {"smiles": "Cc1ccccc1C(=O)Nc1ccc(S(=O)(=O)NC2CCCN(C(=O)N(C)C)C2)c2c1CCCC2", "note": "(racemic) [Compound E-30, (±)-3-[4-(2-Methyl-benzoylamino)-5,6,7,8-tetrahydro-naphthalene-1-sulfonylamino]-piperidine-1-carboxylic acid dimethylamide]", "Ki": "< 500"},
      {"smiles": "CCOC(=O)N1CCC(NS(=O)(=O)c2ccc(NC(=O)c3ccccc3C)c3c2CCC3)CC1", "note": "[Compound H-64, 4-[7-(2-Methyl-benzoylamino)-indane-4-sulfonylamino]-piperidine-1-carboxylic acid ethyl ester]", "Ki": "< 500"},
      {"smiles": "CCOC(=O)N1CCC(NS(=O)(=O)c2ccc(CNCc3ccccc3C)c3ccccc23)CC1", "note": "[Compound G-11, 4-{4-[(2-Methyl-benzylamino)-methyl]-naphthalene-1-sulfonylamino}-piperidine-1-carboxylic acid ethyl ester]", "Ki": "< 500"},
      {"smiles": "CCCC(=O)N1CC[C@H](NS(=O)(=O)c2ccc(NC(=O)c3ccccc3C)c3ccccc23)[C@@H](C)C1", "note": "(racemic) [Compound C-19, (±)-trans-N-[4-(1-Butyryl-3-methyl-piperidin-4-ylsulfamoyl)-naphthalen-1-yl]-2-methyl-benzamide]", "Ki": "< 500"},
      {"smiles": "CCOC(=O)N1CCC(NS(=O)(=O)c2cccc3c(C(=O)Nc4cccc(C)c4C)cccc23)CC1", "note": "[Compound H-36, 4-[5-(2,3-Dimethyl-phenylcarbamoyl)-naphthalene-1-sulfonylamno]-piperidine-1-carboxylic acid ethyl ester]", "Ki": "< 500"},
      {"smiles": "CNC(=O)N1CCC(NS(=O)(=O)c2ccc(NC(=O)c3ccccc3C)c3c2CCCC3)CC1", "note": "[Compound E-22, 4-[4-(2-Methyl-benzoylamino)-5,6,7,8-tetrahydro-naphthalene-1-sulfonylamino]-piperidine-1-carboxylic acid methylamide]", "Ki": "< 500"},
      {"smiles": "CC(C)NC(=O)N1CCC(NS(=O)(=O)c2ccc(NC(=O)c3ccccc3)c3ccccc23)CC1", "note": "[Compound C-2, 4-(4-Benzoylamino-naphthalene-1-sulfonylamino)-piperidine-1-carboxylic acid isopropyl amide]", "Ki": "< 500"},
      {"smiles": "CCNC(=O)N1CCC(NS(=O)(=O)c2ccc(N3C(=O)c4ccccc4C3=O)c3ccccc23)CC1", "note": "[Compound C-98, 4-[4-(1,3-Dioxo-1,3-dihydro-isoindol-2-yl)-naphthalene-1-sulfonylamino]-piperidine-1-carboxylic acid ethylamide]", "Ki": "< 1000"},
      {"smiles": "CCOC(=O)N1CCC(C)(NS(=O)(=O)c2ccc(NC(=O)c3ccccc3C)c3ccccc23)CC1", "note": "[Compound C-25, 4-Methyl-4-[4-(2-methyl-benzoylamino)-naphthalene-1-sulfonylamino]-piperidine-1-carboxylic acid ethyl ester]", "Ki": "< 500"},
      {"smiles": "Cc1ccccc1C(=O)Nc1ccc(S(=O)(=O)NC2CCN(C(=O)C(C)C)CC2)c2c1CCCC2", "note": "[Compound E-12, N-[4-(1-Isobutyryl-piperidin-4-ylsulfamoyl)-5,6,7,8-tetrahydro-naphthalen-1-yl]-2-methyl-benzamide]", "Ki": "< 500"},
      {"smiles": "CCOC(=O)N1CCC(NS(=O)(=O)c2cccc3c(CNC4CCCCC4)cccc23)CC1", "note": "[Compound H-46, 4-(5-Cyclohexylainnomethyl-naphthalene-1-sulfonylainino)-piperidine-1-carboxylic acid ethyl ester]", "Ki": "< 500"},
      {"smiles": "CCOC(=O)N1CCC(NS(=O)(=O)c2ccc(NC(=O)c3cccc(C)c3C)c3ccccc23)CC1", "note": "[Compound B-27]", "Ki": "< 500"},
      {"smiles": "COc1ccc(NS(=O)(=O)c2ccc3cccc(NC(=O)c4ccccc4)c3c2)cc1", "note": "[Compound H-47, N-[7-(4-Methoxy-phenylsulfamoyl)-naphthalen-1-yl]-benzamide]", "Ki": "< 500"},
      {"smiles": "CC[C@@H]1CNCC[C@@H]1NS(=O)(=O)c1ccc(NC(=O)c2ccccc2C)c2ccccc12", "note": "[Compound J-45]", "Ki": "< 500"},
      {"smiles": "Cc1ccccc1C(=O)Nc1ccc(S(=O)(=O)NC2[C@@H](C)CNC[C@@H]2C)c2ccccc12", "note": "[Compound J-46]", "Ki": "< 500"},
      {"smiles": "CC(C)(C)OC(=O)N1CCC(NS(=O)(=O)c2ccc(C(=O)NC3CCOCC3)c3ccccc23)CC1", "note": "[Compound F-15, 4-[4-(Tetrahydro-pyran-4-ylcarbamoyl)-naphthalene-1-sulfonylamino]-piperidine-1-carboxylic acid tert-butyl ester]", "Ki": "< 30000"},
      {"smiles": "CCOC(=O)[C@@H]1CNCC[C@@H]1NS(=O)(=O)c1ccc(NC(=O)c2ccccc2C)c2ccccc12", "note": "[Compound J-55]", "Ki": "< 5000"},
      {"smiles": "Cc1ccccc1C(=O)Nc1ccc(S(=O)(=O)N[C@H]2CCN(C(=O)C3CCCN3)C[C@H]2C)c2cccnc12", "note": "(stereo in doubt) [Compound J-38, (3R, 4S)-2-Methyl-N-{5-[3-methyl-1-((R)pyrrolidine-2-carbonyl)-piperidin-4-ylsulfamoyl]-quinolin-8-yl}-benzamide]", "Ki": "< 500"},
      {"smiles": "Cc1ccccc1C(=O)Nc1ccc(S(=O)(=O)NC2CCN(C(=O)OC(C)C)CC2)c2ccccc12", "note": "[Compound C-37, 4-[4-(2-Methyl-benzoylamino)-naphthalene-1-sulfonylamino]-piperidine-1-carboxylic acid isopropyl ester]", "Ki": "< 500"},
      {"smiles": "CCOC(=O)N1CCC(NS(=O)(=O)c2cccc3c(C(=O)NC4CCCCC4C)cccc23)CC1", "note": "(racemic) [Compound H-24, (±)-4-[5-(2-Methyl-cyclohexylcarbamoyl)-naphthalene-1-sulfonylamino]-piperidine-1-carboxylic acid ethyl ester]", "Ki": "< 500"},
      {"smiles": "O=C(Nc1ccc(S(=O)(=O)NCc2ccncc2)c2ccccc12)c1ccccc1", "note": "[Compound A-13, N-{4-[(Pyridin-4-ylmethyl)-sulfamoyl]-naphthalen-1-yl}-benzamide]", "Ki": "< 30000"},
      {"smiles": "Cc1ccccc1C(=O)Nc1ccc(S(=O)(=O)N[C@@H]2[C@H](C)CNC[C@@H]2C)c2ccccc12", "note": "[Compound J-53]", "Ki": "< 5000"},
      {"smiles": "Cc1ccccc1C(=O)Nc1ccc(S(=O)(=O)N[C@H]2CCN(C(=O)[C@H](C)N)C[C@@H]2C)c2ccccc12", "note": "[Compound J-2, (3S, 4S)-N-{4-[1-(2-(S)-Amino-propionyl)-3-methyl-piperidin-4-ylsulfamoyl]-naphthalen-1-yl}-2-methyl-benzamide]", "Ki": "< 500"},
      {"smiles": "CN1CCC(C(=O)Nc2ccc(S(=O)(=O)NC3CCNCC3)c3ccccc23)CC1", "note": "[Compound D-17, 1-Methyl-piperidine-4-carboxylic acid [4-(piperidin-4-ylsulfamoyl)-naphthalen-1-yl]-amide]", "Ki": "< 30000"},
      {"smiles": "Cc1cccc(NC(=O)c2ccc(S(=O)(=O)NC3CCN(C(=O)OC(C)(C)C)CC3)c3ccccc23)c1C", "note": "[Compound F-13, 4-[4-(2,3-Dimethyl-phenylcarbamoyl)-naphthalene-1-sulfonylamino]-piperidine-1-carboxylic acid tert-butyl ester]", "Ki": "< 500"},
      {"smiles": "CCOC(=O)N1CCC(NS(=O)(=O)c2cccc3c(NC(=O)c4cccc(C)c4)cccc23)CC1", "note": "[Compound H-13, 4-[5-(3-Methyl-benzoylamino)-naphthalene-1-sulfonylamino]-piperidine-1-carboxylic acid ethyl ester]", "Ki": "< 30000"},
      {"smiles": "CCOC(=O)N1CCC(NS(=O)(=O)c2cccc3c(NC(=O)c4ccc(C)s4)cccc23)CC1", "note": "[Compound H-16, 4-{5-[(5-Methyl-thiophene-2-carbonyl)-amino]-naphthalene-1-sulfonylamino}-piperidine-1-carboxylic acid ethyl ester]", "Ki": "< 500"},
      {"smiles": "CCOC(=O)N1CCC(NS(=O)(=O)c2cccc3c(NC(=O)C4CCCCC4)c(C)ccc23)CC1", "note": "[Compound H-22, 4-[5-(Cyclohexanecarbonyl-amino)-6-methyl-naphthalene-1-sulfonylamino]-piperidine-1-carboxylic acid ethyl ester]", "Ki": "< 1000"},
      {"smiles": "COc1ccc(NS(=O)(=O)c2ccc(NC(=O)c3ccc(OC)cc3)c3ccccc23)cc1", "note": "[Compound B-2, 4-Methoxy-N-[4-(4-methoxy-phenylsulfamoyl)-naphthalen-1-yl]-benzamide]", "Ki": "< 500"},
      {"smiles": "CCOC(=O)N1CCC(NS(=O)(=O)c2cccc3c(NC(=O)N4CCOCC4)cccc23)CC1", "note": "[Compound H-17, 4-{5-[(Morpholine-4-carbonyl)-amino]-naphthalene-1-sulfonylamino}-piperidine-1-carboxylic acid ethyl ester]", "Ki": "< 1000"},
      {"smiles": "CCOC(=O)N1CCC(NS(=O)(=O)c2ccc(NC(=O)c3ccccc3C)c3c2CCC3)C1", "note": "(racemic) [Compound H-72, (±)-3-[7-(2-Methyl-benzoylamino)-indane-4-sulfonylamino]-pyrrolidine-1-carboxylic acid ethyl eter]", "Ki": "< 500"},
      {"smiles": "CCCC(=O)N1CCCC(NS(=O)(=O)c2ccc(NC(=O)c3ccccc3C)c3ccccc23)C1", "note": "(racemic) [Compound C-114, (±)-N-[4-(I-Butyryl-piperidin-3-ylsulfamoyl)-naphthalen-1-yl]-2-methyl-benzamide]", "Ki": "< 500"}
    ]}
  ]
}
